Assay results as given in US5624931A, “Pyrazole derivatives” (Fujisawa Pharmaceutical Co., Ltd., priority 1991, dated 1997).

Legend:
[1] = test system: Interleukin-1 (IL-1) production, human peripheral blood monocyte; assay: Inhibitory activity on the production of Interleukin-1 (IL-1) in LPS-stimulated purified human peripheral blood monocytes (IL-1 ELISA); type: cell-based; conditions: 48 h, bacterial lipopolysaccharide 1 μg/10^4 cells, 2 days at 37° C., IL-1β ELISA, read-out: IC50 (inhibition of IL-1 production)
Procedure: (a) Inhibitory activity on the production of Interleukin-1 (IL-1)
Purified human peripheral blood monocyte were stimulated with bacterial lipopolysaccharide (1 μg/10^4 cells) in the absence or presence of appropriately diluted test compound for 2 days at 37° C. in a humidified 5% CO2 atmosphere. Culture supernatants were tested for IL-1 ELISA assay.
Test compound was dissolved in absolute DMSO (dimethyl sulfoxide) to achieve 10 mM stock solutions and was subsequently diluted in serum free RPMI1640.
IL-1 levels were quantified by a commercial ELISA kit (Ohtsuka assay, Japan) using a sandwich technique. The sensitivity levels for the detection of IL-1β were 20 pg/ml.
(§1) The inhibitory concentration that caused a 50% inhibition (IC50) was calculated by regression analysis of the dose-response data.

[2] = test system: tumor necrosis factor (TNF) production, human peripheral blood monocyte; assay: Inhibitory activity on the production of tumor necrosis factor (TNF) in LPS-stimulated purified human peripheral blood monocytes (TNF ELISA); type: cell-based; conditions: 48 h, bacterial lipopolysaccharide 1 μg/10^4 cells, 2 days at 37° C., read-out: IC50 (inhibition of TNF production)
Procedure: (b) Inhibitory activity on the production of tumor necrosis factor (TNF)
Purified human peripheral blood monocyte were stimulated with bacterial lipopolysaccharide (1 μg/10^4 cells) in the absence or presence of appropriately diluted test compound for 2 days at 37° C. in a humidified 5% CO2 atmosphere. Culture supernatants were tested for TNF ELISA assay.
TNF levels were quantified by a commercial ELISA kit (Endogen, Inc. USA) using a sandwich technique. The sensitivity levels for the detection of TNF were 12 pg/ml.
as §1

IC50 [1]: 38 nM
Compound: Fc1ccc(-c2nn3c(c2-c2ccncc2)NCCC3)cc1 [Example 2-(1), 2-(4-fluorophenyl)-3-(pyridin-4-yl)-4,5,6,7-tetrahydropyrazolo[1,5-a]pyrimidine]
IC50 [2]: 116 nM
